For three compounds, IC50 results are on record in ChEMBL document CHEMBL1141814, “Chiral dihydroxylation of acronycine: absolute configuration of natural cis-1,2-dihydroxy-1,2-dihydroacronycine and cytotoxicity of (1R,2R)- and (1S,2S)-1,2-diacetoxy-1,2-dihydroacronycine” (J Nat Prod, 1999).

Molecules are shown by their SMILES.

The assay deals with L1210. Description: Cytotoxicity against mouse L1210 cells after 48 hrs by […] assay. It is filed as functional, cell-based. The following applies: L1210, 48 h.

With `COc1cc2c(c3c1c(=O)c1ccccc1n3C)[C@H](OC(C)=O)[C@H](OC(C)=O)C(C)(C)O2`, the IC50 (usually the midpoint of a concentration-inhibition curve) was found to be 3.7 µM.

The compound `COc1cc2c(c3c1c(=O)c1ccccc1n3C)[C@@H](OC(C)=O)[C@@H](OC(C)=O)C(C)(C)O2` showed a concentration for half-maximal inhibition (IC50) of 3.1 µM.

`COc1cc2c(c3c1c(=O)c1ccccc1n3C)C=CC(C)(C)O2` [ACRONINE] returned an IC50 of 10.4 µM.
